Source: PubChem BioAssay AID1845196 (Molecular Pharmacology Branch, DTP, NCI, 2023)
pIC50: −log10 of the molar value. Where “and” joins values, the source holds several entries; their conditions need not be identical. Equal values may be shown once.

System: 292921-168-R tumor spheroid viability
Experiment: Anticancer human tumor 292921-168-R patient-derived pancreatic carcinoma cell line growth inhibition
Settings: spheroids with HUVEC and MSC; for viability, T/C: stronger effect = lower value
In short: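 Complex spheroids of malignant cells with endothelial cells and mesenchymal stem cells; agents alone or combined, from near clinical Cmax (or 10 microM if unknown) down in half-log steps, 0.25% DMSO final.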
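Note: spheroids exposed to compounds for 7 days.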

`CNCc1ccc(-c2cc(-c3nc(-c4ccc(S(=O)(=O)C(C)C)cc4)cnc3N)on2)cc1` + COc1cc2c(cc1O)CCNC21CSC2c3c(OC(C)=O)c(C)c4c(c3C(COC1=O)N1C(O)C3Cc5cc(C)c(OC)c(O)c5C(C21)N3C)OCO4 was tested, and the pIC50 (curve of first compound, second compound 30 pM) was 6.71, the pIC50 (curve of first compound, second compound 94.9 pM) was 6.83 and the pIC50 (curve of first compound, second compound 0.0003 µM) was > 8.02. The pIC50 (curve of first compound, second compound 0.000949 µM) was > 8.02, the pIC50 (curve of first compound, second compound 0.003 µM) was > 8.02 and the viability, T/C (second compound 30 pM, first compound 0.00949 µM) was 96.9%. The viability, T/C (second compound 30 pM, first compound 0.03 µM) was 104%, the viability, T/C (second compound 30 pM, first compound 0.0949 µM) was 71.5% and the viability, T/C (second compound 30 pM, first compound 0.3 µM) was 36.8%. It also gave a viability, T/C (second compound 30 pM, first compound 0.949 µM) of 15.8%, a viability, T/C (second compound 30 pM, first compound 3 µM) of 13.2% and a viability, T/C (second compound 94.9 pM, first compound 0.00949 µM) of 100%. It also gave a viability, T/C (second compound 94.9 pM, first compound 0.03 µM) of 96.4%, a viability, T/C (second compound 94.9 pM, first compound 0.0949 µM) of 69% and a viability, T/C (second compound 94.9 pM, first compound 0.3 µM) of 19%. The viability, T/C (second compound 94.9 pM, first compound 0.949 µM) was 13.2%, the viability, T/C (second compound 94.9 pM, first compound 3 µM) was 8.91% and the viability, T/C (second compound 0.0003 µM, first compound 0.00949 µM) was 45.9%. The viability, T/C (second compound 0.0003 µM, first compound 0.03 µM) was 50.7%, the viability, T/C (second compound 0.0003 µM, first compound 0.0949 µM) was 28.6% and the viability, T/C (second compound 0.0003 µM, first compound 0.3 µM) was 14.5%. For the same compound, the viability, T/C (second compound 0.0003 µM, first compound 0.949 µM) was 10%, the viability, T/C (second compound 0.0003 µM, first compound 3 µM) was 8.68% and the viability, T/C (second compound 0.000949 µM, first compound 0.00949 µM) was 2.7%. The viability, T/C (second compound 0.000949 µM, first compound 0.03 µM) was 5.05%, the viability, T/C (second compound 0.000949 µM, first compound 0.0949 µM) was 4.26% and the viability, T/C (second compound 0.000949 µM, first compound 0.3 µM) was 4.15%. It also gave a viability, T/C (second compound 0.000949 µM, first compound 0.949 µM) of 3.65%, a viability, T/C (second compound 0.000949 µM, first compound 3 µM) of 0.18% and a viability, T/C (second compound 0.003 µM, first compound 0.00949 µM) of 0.18%. The viability, T/C (second compound 0.003 µM, first compound 0.03 µM) was 0.17%, the viability, T/C (second compound 0.003 µM, first compound 0.0949 µM) was 0.15% and the viability, T/C (second compound 0.003 µM, first compound 0.3 µM) was 0.2%. The viability, T/C (second compound 0.003 µM, first compound 0.949 µM) was 0.24% and the viability, T/C (second compound 0.003 µM, first compound 3 µM) was 0.16%.
With `COc1ccc([C@@H](O)c2cc(-c3ncnc4cc(N5CCOCC5)ccc34)c(F)cc2Cl)nn1` the viability, T/C (compound 0.0316 µM) was 103% and 105% and 96.1%, the viability, T/C (compound 0.1 µM) was 99.4% and 97.3% and 101% and the viability, T/C (compound 0.316 µM) was 91.3% and 87.4% and 87.8%. For the same compound, the viability, T/C (compound 1 µM) was 57.4% and 56.3% and 64.4%, the viability, T/C (compound 3.16 µM) was 37% and 34.3% and 35.8% and the viability, T/C (compound 10 µM) was 20.6% and 19% and 21%. For the same compound, the pIC50 (curve of compound) was 5.80 and 5.84 and 5.75.
